The values that follow come from US6377057B1, “Classification of biological agents according to the spectral density signature of evoked changes in cellular electric potential” (priority 1999, dated 2002).

For the test, the system named is embryonic chick myocardial cells. Format: cell-based.

Take `CNC[C@H](O)c1ccc(O)c(O)c1` [Epinephrine]: the “PSD ratio (PSD after agent ÷ PSD before agent), modulation function of the action potential” value is “enhanced the power of the AP across a 2 kHz bandwidth with a slight bandpass effect observed”. For the compound `CC[N+](CC)(CC)CC(=O)Nc1c(C)cccc1C.[Br-]` [QX-314], under “additional data, concentration not given”, the “PSD modulation function of the action potential” value is listed as “modulation function similar to that of TTX, but with additional attenuation at lower frequencies”. Take `NC1=N[C@H](O)[C@H]2[C@H]3O[C@]4(O)O[C@@H]([C@@H](O)[C@@]2(N1)[C@@H]4O)[C@]3(O)CO` [Tetrodotoxin]: the “PSD ratio (PSD after agent ÷ PSD before agent), modulation function of the action potential” value is “low pass filter effect that clearly reduced the high frequency components of the AP”.
